Reference: patent US20220135663A1, “Method of treatment of Chronic Low Back Pain” (Pfizer Inc., priority 2019, published 2022)
“Also recorded” adds a separate entry of the source.

Key:
[1] = system: subjects with chronic low back pain (CLBP); assay: Study 1063, Phase 3 in Japan: efficacy (LBPI, RMDQ) in chronic low back pain; assay type: in vivo, human
Description: Patients received a total of seven SC injections, separated by 8 weeks (tanezumab or
Treatment groups were as follows: 1. […] Placebo for tanezumab SC and celecoxib BID.
The Intent-to-Treat (ITT) analysis set included all patients who were randomized and received at least one dose of SC study medication (either tanezumab or placebo). This analysis set was primary for all efficacy endpoints, which were analyzed according to randomization assignment, and was labeled as the ‘ITT population’.

NGF [2] = molecular target: T1, NGF (Homo sapiens, UniProt P01138); conditions: cell culture models; cited from earlier work
[3] = system: adult patients with chronic low back pain; assay: Study 1059, Phase 3: efficacy (LBPI, RMDQ) in chronic low back pain; assay type: in vivo, human
Description: The Low Back Pain Intensity (LBPI) measure is assessed with an 11-point numeric rating scale ranging from 0 (no pain) to 10 (worst possible pain). The LBPI score can be the daily average LBPI score.
The Roland Morris Disability Questionnaire (RMDQ) is an index of how well subjects with low back pain are able to function with regard to daily activities (Roland M, Fairbank. The Roland-Morris Questionnaire and the Oswestry Disability Questionnaire. Spine. 2000; 25 (4)3115-3124). It is a low back pain-specific assessment of physical function with scores ranging from 0 to 24 (lower scores indicate better function).
(§1) Patients were also required to have documented history of previous inadequate treatment response to at least 3 different categories of agents commonly used and generally considered effective for the treatment of chronic low back pain. Patients were required to discontinue all medications for the treatment of chronic low back pain during the primary efficacy assessment period (up to Week 16).
Approximately 1800 patients were planned to be randomized initially in a 2:2:2:3 ratio to 1 of 4 following treatment groups:
1. Placebo administered SC at an 8-week interval plus placebo matching tramadol PR up to Week 16. At the Week 16 visit, patients in this group were switched in a blinded fashion in a 1:1 ratio to either tanezumab 5 mg or tanezumab 10 mg administered SC at an 8 week interval plus placebo matching tramadol PR to Week 56;
2. Tanezumab 5 mg SC administered at an 8-week interval plus placebo matching tramadol PR to Week 56;
3. Tanezumab 10 mg SC administered at an 8-week interval plus placebo matching tramadol PR to Week 56;
4. Oral tramadol PR 100-300 mg daily plus placebo administered SC at an 8-week interval to Week 56.
To achieve the initial randomization and intended re-randomization at Week 16 for placebo patients, a randomization ratio 1:1:2:2:3 for placebo→tanezumab 5 mg (at Week 16), placebo→tanezumab 10 mg (at Week 16), tanezumab 5 mg, tanezumab 10 mg, and tramadol PR was used at the beginning of the trial.
Table 2 summarizes the requirements for analgesic medication usage prior to Screening and the requirements for LBPI and Patient's Global Assessment (PGA) of CLBP. The current study enrolled patients who were more refractory to standard of care treatments for CLBP and had higher LBPI scores at Baseline.

[4] = system: subjects with chronic low back pain (CLBP); conditions: in vivo
Description: This second study (termed “Study 1063) was a randomized, double-blind, active-controlled, multicenter, parallel-group Phase 3 study in Japan to evaluate the safety and efficacy of tanezumab when administered by SC injection for up to 56 weeks in subjects with chronic low back pain (CLBP). […] Patients were also required to be experiencing some benefit from their current stable dose regimen of oral therapy of NSAID (celecoxib 200 mg/day [100 mg BID], loxoprofen 120 to 180 mg/day or meloxicam 5 to 15 mg/day) treatment, but still required additional pain relief at screening. […] Patients with a diagnosis of osteoarthritis of the knee or hip as defined by the American College of Rheumatology combined clinical and radiographic criteria or who had Kellgren Lawrence Grade ≥2 radiographic evidence of hip osteoarthritis or Kellgren Lawrence Grade ≤3 radiographic evidence of knee osteoarthritis were excluded.
Treatment groups were as follows: 1. Tanezumab 5 mg SC and placebo for celecoxib BID; 2. Tanezumab 10 mg SC and placebo for celecoxib BID; 3. Placebo for tanezumab SC and celecoxib BID.
This study was designed with a total (post-randomization) duration of 80 weeks and consisted of three periods: (1) a Screening period (up to a maximum of 37 days), (2) a Double-blind Treatment period (56 weeks), and (3) a Safety Follow-up (24 weeks) Period (FIG. 8). The Screening Period included a Washout Period (lasting 2-32 days) if required, and an Initial Pain Assessment Period (IPAP) (5 days prior to Randomization/Baseline; minimum 4 days).
The Safety analysis set included all patients who received at least one dose of SC study treatment. This analysis set was primary for all safety endpoints, which were analyzed according to treatment received, and was labeled as the ‘Safety population’. In this study, the ITT and Safety analysis sets were identical.

[5] = system: adult patients with chronic low back pain; assay: Study 1059: adverse events and adjudicated joint safety; assay type: in vivo, human; conditions: for incidence of discontinuations from treatment due to an adverse event / incidence of serious adverse events / overall incidence of adverse events: 56-week treatment period
Text: For subjects who are identified with a possible or probable joint event (i.e., rapidly progressive osteoarthritis, subchondral insufficiency fractures, spontaneous osteonecrosis of the knee (SPONK), primary osteonecrosis or pathological fracture) and subjects undergoing total joint replacement for any reason, all images and other source documentation may be provided to the blinded Adjudication Committee for review and adjudication of the event. The Adjudication Committee's assessment of the event may represent the final classification of the event.
as §1

NGF [6] = molecular target: T1, NGF; conditions: cited from earlier work
OA = conditions: tanezumab 2.5-5 mg combined, N = 2000; cited from earlier work
[7] = 5 mg SC every 8 weeks, listed as Tan
[8] = 10 mg SC every 8 weeks, listed as Tan
[9] = tanezumab 5-10 mg combined, N = 1008

T1 sequence (P01138 122-241): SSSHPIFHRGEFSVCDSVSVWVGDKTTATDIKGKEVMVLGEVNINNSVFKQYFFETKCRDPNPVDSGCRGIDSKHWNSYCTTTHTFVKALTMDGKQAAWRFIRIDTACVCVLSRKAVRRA

tanezumab: humanized IgG2 monoclonal antibody directed against human nerve growth factor (NGF); heavy chain SEQ ID NO: 9 or 11, light chain SEQ ID NO: 10
Proportion of Patients with ≥50% Improvement in LBPI at Week 16 (Mixed BOCF/LOCF) ([1]; 5 mg SC every 8 weeks): (51.1%)
Proportion with ≥50% Improvement in LBPI at Week 16, Difference vs. celecoxib ([1]; 5 mg SC every 8 weeks): 18.5
Change from Baseline to Week 16 in LBPI (Multiple Imputation), LS Mean ([1]; 5 mg SC every 8 weeks, ITT): −2.91
Change from Baseline to Week 16 in RMDQ (Multiple Imputation), LS Mean ([1]; 5 mg SC every 8 weeks, ITT): −3.85
Change from Baseline to Week 16 in RMDQ, LS Mean Difference vs. celecoxib ([1]; 5 mg SC every 8 weeks, ITT): −0.01
treatment differences for change from baseline to Week 56 for LBPI and RMDQ ([1]; 5 mg group relative to both the tanezumab 10 mg and the celecoxib groups): numerically larger
Proportion of Patients with ≥50% Improvement in LBPI at Week 16 (Mixed BOCF/LOCF) ([1]; 10 mg SC every 8 weeks): (35.5%)
Proportion with ≥50% Improvement in LBPI at Week 16, Difference vs. celecoxib ([1]; 10 mg SC every 8 weeks): 2.9
Change from Baseline to Week 16 in LBPI (Multiple Imputation), LS Mean ([1]; 10 mg SC every 8 weeks, ITT): −2.51
Change from Baseline to Week 16 in RMDQ (Multiple Imputation), LS Mean ([1]; 10 mg SC every 8 weeks, ITT): −4.38
blocking of the activity of NGF (NGF [2]): blocks the activity of NGF effectively
LBPI at week 56, LS mean difference versus tramadol ([3]; 5 mg SC every 8 weeks): −0.11
LBPI change from Baseline to Week 2, Difference vs. plc ([3]; 5 mg SC every 8 weeks): −0.37
LBPI change from Baseline to Week 2, LS Mean ([3]; 5 mg SC every 8 weeks): −1.54
LBPI change from Baseline to Week 16, Difference vs. plc ([3]; 5 mg SC every 8 weeks): No statistically significant improvement
LBPI change from Baseline to Week 16, LS Mean ([3]; 5 mg SC every 8 weeks): −2.98
Proportion of patients with ≥50% improvement in LBPI at Week 16 ([3]; 5 mg SC every 8 weeks): (43.3) %
RMDQ at week 56, LS mean difference versus tramadol ([3]; 5 mg SC every 8 weeks): −0.44
RMDQ change from Baseline to Week 16, Difference vs. plc ([3]; 5 mg SC every 8 weeks): larger improvement in RMDQ versus placebo treatment
RMDQ change from Baseline to Week 16, LS Mean ([3]; 5 mg SC every 8 weeks): −6.27
percentage of patients achieving ≥30% improvement in LBPI at week 16 ([3]; 5 mg SC every 8 weeks): 64.8%
≥30% improvement in LBPI at week 16, odds ratio versus placebo ([3]; 5 mg SC every 8 weeks): 1.45
≥30% improvement in LBPI at week 16, odds ratio versus tramadol ([3]; 5 mg SC every 8 weeks): 1.34
≥50% improvement in LBPI at Week 16, OR vs. plc ([3]; 5 mg SC every 8 weeks): 1.28
LBPI change from Baseline to Week 16, Difference vs. plc [3, 7]: −0.30
RMDQ change from Baseline to Week 16, Difference vs. plc [3, 7]: −1.32
LBPI at week 56, LS mean difference versus tramadol ([3]; 10 mg SC every 8 weeks): −0.21
LBPI change from Baseline to Week 2, Difference vs. plc ([3]; 10 mg SC every 8 weeks): onset of effect at Week 2
LBPI change from Baseline to Week 2, LS Mean ([3]; 10 mg SC every 8 weeks): −1.59
LBPI change from Baseline to Week 16, Difference vs. plc ([3]; 10 mg SC every 8 weeks): statistically significant improvement
LBPI change from Baseline to Week 16, LS Mean ([3]; 10 mg SC every 8 weeks): −3.08
Proportion of patients with ≥50% improvement in LBPI at Week 16 ([3]; 10 mg SC every 8 weeks): (46.3) %
RMDQ at week 56, LS mean difference versus tramadol ([3]; 10 mg SC every 8 weeks): −0.83
RMDQ change from Baseline to Week 16, Difference vs. plc ([3]; 10 mg SC every 8 weeks): superior improvement in physical function
RMDQ change from Baseline to Week 16, LS Mean ([3]; 10 mg SC every 8 weeks): −6.69
percentage of patients achieving ≥30% improvement in LBPI at week 16 ([3]; 10 mg SC every 8 weeks): 65.5%
≥30% improvement in LBPI at week 16, odds ratio versus placebo ([3]; 10 mg SC every 8 weeks): 1.50
≥30% improvement in LBPI at week 16, odds ratio versus tramadol ([3]; 10 mg SC every 8 weeks): 1.38
≥50% improvement in LBPI at Week 16, OR vs. plc ([3]; 10 mg SC every 8 weeks): superior responder rate
LBPI change from Baseline to Week 2, Difference vs. plc [3, 8]: −0.42
LBPI change from Baseline to Week 16, Difference vs. plc [3, 8]: −0.40
RMDQ change from Baseline to Week 16, Difference vs. plc [3, 8]: −1.74
≥50% improvement in LBPI at Week 16, OR vs. plc [3, 8]: 1.45
severity of abnormal peripheral sensation adverse events [4]: mild in severity
severity of potential sympathetic dysfunction events [4]: mild in severity
incidence of adverse events of potential sympathetic dysfunction ([5]; 5 mg): 5.9%
incidence of carpal tunnel syndrome ([5]; 5 mg): 1.0%
incidence of hypoaesthesia ([5]; 5 mg): 3.0%
incidence of composite joint safety endpoint ([5]; 5 mg SC every 8 weeks): 1.0%
observation-time adjusted rate of composite joint safety endpoint ([5]; 5 mg SC every 8 weeks): 10.0 events/1000 patient-years
patients adjudicated to normal progression of OA, number ([5]; 5 mg SC every 8 weeks): 1 patient
patients with joint safety event adjudicated to RPOA Type 1 ([5]; 5 mg SC every 8 weeks): 1.0%
patients with joint safety event adjudicated to RPOA Type 1, number ([5]; 5 mg SC every 8 weeks): 5 patients
incidence of discontinuations from treatment due to an adverse event ([5]; 5 mg): 6.7%
incidence of serious adverse events ([5]; 5 mg): 2.2%
overall incidence of adverse events ([5]; 5 mg): 58.3%
incidence of adverse events of potential sympathetic dysfunction ([5]; 10 mg): 6.4%
incidence of carpal tunnel syndrome ([5]; 10 mg): 1.6%
incidence of hypoaesthesia ([5]; 10 mg): 3.8%
incidence of composite joint safety endpoint ([5]; 10 mg SC every 8 weeks): 2.6%
observation-time adjusted rate of composite joint safety endpoint ([5]; 10 mg SC every 8 weeks): 25.7 events/1000 patient-years
patients adjudicated to normal progression of OA, number ([5]; 10 mg SC every 8 weeks): 1 patient
patients with joint safety event adjudicated to RPOA Type 1 ([5]; 10 mg SC every 8 weeks): 1.4%
patients with joint safety event adjudicated to RPOA Type 1, number ([5]; 10 mg SC every 8 weeks): 7 patients
patients with joint safety events adjudicated to RPOA Type 2 ([5]; 10 mg SC every 8 weeks): 0.4%
patients with joint safety events adjudicated to RPOA Type 2, number ([5]; 10 mg SC every 8 weeks): Two
patients with subchondral insufficiency fracture ([5]; 10 mg SC every 8 weeks): 0.8%
patients with subchondral insufficiency fracture, number ([5]; 10 mg SC every 8 weeks): Four and four
patients with total joint replacement during study observation period, number ([5]; 10 mg SC every 8 weeks): 7 patients
incidence of discontinuations from treatment due to an adverse event ([5]; 10 mg): 7.4%
incidence of serious adverse events ([5]; 10 mg): 4.6%
overall incidence of adverse events ([5]; 10 mg): 63.7%
Primary Osteonecrosis, n (%) [5, 9]: 0 n (%)
RPOA Type 1 [5, 9]: (1.2%)
RPOA Type 2 [5, 9]: (0.2%)
Subchondral Insufficiency Fracture [5, 9]: (0.4%)
patients with joint safety event requiring adjudication ([5]; tanezumab-treated patients (5 and 10 mg combined), 80-week observation period): 2.6%
binding to NGF (NGF [6]): high specificity and affinity; also recorded: high affinity and specificity
Primary Osteonecrosis (OA): (0.1%)
RPOA (OA): (4.8%)
RPOA Type 1 (OA): (3.9%)
RPOA Type 2 (OA): (0.9%)
Subchondral Insufficiency Fracture (OA): (0.7%)
